{"source": "patent US20230381139A1", "about": "“METHODS OF TREATING AND/OR PREVENTING ALZHEIMER’S DISEASE WITH R-CARVEDILOL” (priority 2020, published 2023)", "test_system": "5×FAD+/− hippocampal CA1 neurons", "assay": "In vivo two-photon Ca2+ imaging of CA1 neurons (neuronal hyperactivity) in 5×FAD+/− mice", "parameters": "species or system mouse", "method": "Adult genetically engineered mice, 5×FAD^+/− (Oakley et al., 2006), RyR2-E4872Q^+/− (EQ^+/−) (Chen et al., 2014), 5×FAD^+/−/RyR2-E4872Q^+/− (5×FAD^+/−/EQ^+/−), and wildtype (WT) littermates of both sexes were used. R-carvedilol (R-CV) (at doses of 0.8, 1.6 or 3.2 mg/kg/day), racemic carvedilol (3.2 mg/kg/day), and vehicle control (DMSO) were delivered to 5×FAD^+/− mice in drinking water for one month, starting at different ages before (2-3 months old) or after (3-4 months old) the occurrence of AD pathologies (Oakley et al., 2006). To assess the effects of genetically and pharmacologically limiting RyR2 open time on the prevention and rescue of AD deficits in different stages (early, moderate, and late) of AD progression, animals at different ages (from 2-15 months) were used. As reported (Oakley et al., 2006), there was an age-dependence of AD progression in the 5×FAD^+/− mice. No sex-dependent differences in AD progression in these mice was observed. For 2-photon Ca^2+ imaging experiments, 5×FAD, RyR2 WT, and RyR2 mutant mice were cross-bred with the heterozygous Thy1-GCaMP6f transgenic mice (Chen et al., 2012; Chen et al., 2013) (GP5.17, JAX 025393) to express the GCaMP6f Ca^2+ sensing probe (driven by the Thy1 promotor) in hippocampal neurons in each of the genotypes used.\nTo determine whether limiting RyR2 open time can suppress AD-associated neuronal hyperactivity in vivo, double heterozygous 5×FAD^+/−/E4872Q^+/− mice were crossed with the heterozygous Thy-1 GCaMP6f^+/− transgenic mice (GP5.17, JAX 025393) to introduce the GCaMP6f^+/− transgene into each of the four genotypes (driven by the Thy1 promotor). In vivo two-photon imaging of GCaMP6f-expressing CA1 pyramidal neurons in each of the four genotypes to monitor spontaneous Ca^2+ transients was performed.\nNeuronal hyperactivity has been reported in anesthetized AD model mice in vivo using two-photon Ca^2 + imaging (Busche et al., 2008; Busche et al., 2012; Lerdkrai et al., 2018; Busche et al., 2019). To facilitate comparison, the same approach described originally by Busche et al. and used by others in the field (Busche et al., 2012; Busche et al., 2008; Delekate et al., 2014; Eichhoff and Garaschuk, 2011; Kim et al., 2016; Takano et al., 2007; Zott et al., 2019) was employed. Craniotomy was performed according to the protocol reported previously (Busche, 2018; Busche et al., 2012; Busche et al., 2008) with some modifications. […] The body temperature was monitored and controlled at 36.5-37.5° C. during the entire surgery and imaging procedure. […] Besides the core body temperature, the respiratory and pulse rate were continuously monitored (MouseOx plus. STARR Life Science Corp.). […]", "key": {"[1]": {"settings": "3.2 mg/kg/day for one month, started at 2-3 or 3-4 months of age (both ages), vs vehicle pre-treated 5×FAD+/− mice"}}, "data": [{"compound": "COc1ccccc1OCCNC[C@@H](O)COc1cccc2[nH]c3ccccc3c12", "note": "[R-carvedilol, R-(+)-carvedilol]", "values": [{"measurement": "fraction of hyperactive neurons", "setting": "[1]", "value": "significantly lower"}, {"measurement": "mean frequency of spontaneous Ca2+ transients", "setting": "[1]", "value": "significantly lower"}, {"measurement": "overall spontaneous neuronal activity (cumulative probability analysis)", "setting": "[1]", "value": "significantly lower"}, {"measurement": "neuronal hyperactivity of 5×FAD+/− hippocampal CA1 neurons in vivo", "setting": "3.2 mg/kg/day in drinking water for one month, started at 2-3 months (before AD pathology) or 3-4 months (after) of age, vs DMSO vehicle", "value": "prevented and rescued"}]}]}
